Data set [1] relates to Rho/ROCK activity (MLC2 diphosphorylation) in human brain microvascular endothelial cells. As to the kind of experiment: LPA-treated hBMVECs, pMLC2 T18/S19 immunoblot. The data set is classed as cell-based. The settings on record: 20 μM LPA, Example 16, present tense.
Method: Cells are exposed to each dose for 1 hr, and are then stimulated with 20 μM LPA for either 5 min or 1 hr as described below. All experiments are conducted in triplicate and analyzed by 2 independent assessors blinded to both cell line and treatment.
Cells are subjected to biochemical analysis of diphosphorylated MLC2 (Threonine 18/Serine 19 phosphorylation sites) and phosphorylated cofilin (Serine 9 phosphorylation site) using SDS-PAGE and immunoblotting. Cells are plated in 24-well tissue culture plates coated with 70 μg/ml rat collagen-1 (Corning) and grown in ENDO-growth media (Neuromics) for 3 days at 37° C./5% CO2 until confluency. […] The medium is exchanged for ENDO basal media supplemented with 1% HSA, 20 μM of LPA (Santa Cruz Biotech; Santa Cruz, Calif.) and the appropriate amount of compound being tested. After 5 min, the medium is aspirated and the cells are briefly washed with 1×PBS. Proteins are extracted from cells by lysis with RIPA buffer supplemented with complete protease/phosphatase inhibitor (HALT, Thermo Fisher Scientific), reduced and denatured using Laemmli sample buffer (BioRad; Hercules, Calif., beta-mercaptoethanol and subjected to SDS-PAGE.
Denatured samples are electrophoresed in reducing 10% Bis-Tris-PA gels (Novex; Thermo-Fisher), and are transferred onto 0.25 μm PVDF membranes (EMD Millipore). Membranes are probed using amti-pMLC2 T18/S19 (1:500; Cell Signaling) or anti-pCofilin (1:500, Cell Signaling S9) and anti-glyceraldehyde 3-phosphate dehydrogenase loading control (GAPDH, 1:10000; Abcam, Cambridge, Mass.). Protein levels are detected using a chemiluminescence substrate (Super Signal West, ThermoFisher) and images are captured using a FluoroChem SP Imaging System.
The next data set deals with ROCK2 (Homo sapiens (Human), UniProt O75116). Description: ROCK2 inhibition curves, MYPT1 substrate plate assay. Type of data set: biochemical. The settings on record: purified ROCK2, MYPT1 substrate. As to the method: Each compound was dissolved at 100 mM in DMSO. This compound-DMSO solution is diluted to 500 μM in dH2O. Serial dilutions were prepared so that a semi-log range of compound is present after being diluted 5× in other assay reagents, from 100 μM through 1 nM.
Sequence of ROCK2 (O75116 whole entry, species assumed): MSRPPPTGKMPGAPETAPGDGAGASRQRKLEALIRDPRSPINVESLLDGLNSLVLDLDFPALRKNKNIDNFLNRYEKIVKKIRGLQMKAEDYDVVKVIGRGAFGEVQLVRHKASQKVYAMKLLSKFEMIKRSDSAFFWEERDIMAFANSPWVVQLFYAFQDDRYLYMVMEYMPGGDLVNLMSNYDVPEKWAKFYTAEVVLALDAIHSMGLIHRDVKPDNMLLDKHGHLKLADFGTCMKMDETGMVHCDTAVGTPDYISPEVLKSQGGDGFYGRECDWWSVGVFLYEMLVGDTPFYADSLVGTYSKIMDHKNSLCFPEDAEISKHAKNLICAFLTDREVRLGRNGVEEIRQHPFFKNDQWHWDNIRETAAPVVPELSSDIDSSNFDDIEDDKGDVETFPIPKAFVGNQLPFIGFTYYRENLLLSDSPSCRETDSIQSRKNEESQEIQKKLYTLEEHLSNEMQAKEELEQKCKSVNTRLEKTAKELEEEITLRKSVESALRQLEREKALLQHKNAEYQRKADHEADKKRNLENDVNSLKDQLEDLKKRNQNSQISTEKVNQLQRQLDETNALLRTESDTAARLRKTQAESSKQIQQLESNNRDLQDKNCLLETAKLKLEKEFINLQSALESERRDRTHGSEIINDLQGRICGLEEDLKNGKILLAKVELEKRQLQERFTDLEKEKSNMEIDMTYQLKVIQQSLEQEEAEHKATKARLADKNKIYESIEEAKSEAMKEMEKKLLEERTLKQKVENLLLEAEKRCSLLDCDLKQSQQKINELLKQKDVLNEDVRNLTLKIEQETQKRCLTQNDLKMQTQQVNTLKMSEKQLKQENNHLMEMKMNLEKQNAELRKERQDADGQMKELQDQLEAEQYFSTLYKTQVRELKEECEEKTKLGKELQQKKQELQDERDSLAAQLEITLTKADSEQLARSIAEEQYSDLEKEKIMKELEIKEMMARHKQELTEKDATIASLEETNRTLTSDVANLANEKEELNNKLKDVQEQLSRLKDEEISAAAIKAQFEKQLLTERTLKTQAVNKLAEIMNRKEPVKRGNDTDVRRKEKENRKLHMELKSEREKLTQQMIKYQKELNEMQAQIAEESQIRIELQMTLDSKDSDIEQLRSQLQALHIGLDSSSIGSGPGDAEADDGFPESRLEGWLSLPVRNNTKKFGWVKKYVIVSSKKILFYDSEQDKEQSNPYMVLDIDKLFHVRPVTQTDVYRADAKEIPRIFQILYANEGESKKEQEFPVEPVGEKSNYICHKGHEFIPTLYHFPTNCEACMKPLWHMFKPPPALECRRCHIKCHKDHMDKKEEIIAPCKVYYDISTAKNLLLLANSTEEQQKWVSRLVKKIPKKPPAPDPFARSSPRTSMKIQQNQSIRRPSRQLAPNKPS
10 μL of each concentration of each compound was added in duplicate to individual wells of a 96-well Maxisorp plate (ThermoFisher) pre-coated with the ROCK2 substrate MYPT1 (ThermoFisher). dH2O is added as a negative control.
Using a multichannel pipettor, […] of final volume per well was made by the addition of the following of each solution to begin the reaction: 10 μL 20 mM MOPS pH 7.2, 25 mM β-glycerophosphate, 5 mM EGTA, 1 mM Na3VO4, and 1 mM DTT, 10 μL 50 μM ATP, 10 μL 75 mM MgCl2, and 10 μL 1 mU/μL ROCK2 solution. […]
100 μL TMB/E solution was added to each well with a multichannel pipette. Upon sufficient color development, the reaction was stopped using 100 μL stop solution and absorbance read using a Wallac Victor2 plate reader at 450 nm.
Because absorbance values proportional to ROCK2 activity, plotting absorbance at 450 nm versus final concentration of metabolite and parent compound provides inhibition curves. Relative inhibitory profiles were determined through 4PL analysis of these curves. Variations in calculated IC50 are common before assay optimization due to variations in experimental variables.

Another data set has as its target 5-HT2b-receptor (Homo sapiens (Human), UniProt P41595). As to the kind of experiment: SAFETYscan off-target panel. The data set is classed as cell-based. The following applies: 10 μM. As for the experimental part:
The SAFETYscan™ (DiscoverX) is used for rapid testing of any compound against a panel that includes well-known membrane proteins of importance for drug development such as selected voltage-gated ion channels, G-protein coupled receptors, neurotransmitter transporters and also a selected group of purified cellular enzymes.
Cell lines engineered to express individual transmembrane receptor proteins such as the muscarinic acetylcholine receptor or the dopamine D1 receptor were grown in culture in their standard growth medium until reaching confluence. […] The experiment also contains controls for comparison including known agonists and antagonists of the targeted membrane proteins.
For assays using purified enzymes, an enzyme assay is set up in standard reaction buffer and necessary indicators for activity such as co-factors, buffers and synthetic substrates. […] As positive controls, a binding assay using Rho kinase (ROCK) was included in the panel. Other targets in the panel included G-protein coupled receptors, nuclear hormone receptors, intracellular non-kinase enzymes, ion channels, and neurotransmitter transporters. The specific targets were chosen because of their previous known associations with being the source of problematic off-target effects in cellular or whole animal studies.

A short description of data set [2]: Brain penetration after IV, IP or PO administration in C57BL/6 mice. Type of data set: in vivo, mouse. The settings on record: IV 5 mg/kg, IP 10 mg/kg, PO 30 mg/kg. As to the method: To determine the plasma concentrations and pharmacokinetics of the test compounds and test article following a single intravenous (IV) (5 mg/kg), intraperitoneal (IP) (10 mg/kg), or oral dose (PO) (30 mg/kg) administration to C57BL/6 male mice, the following testing [WAS/IS] performed according to the conductions set forth in Table 14.
The test drug is provided once as follows: Each I.V. dosing syringe is weighed loaded and unloaded to at least 4 decimal places. The actual dose (5 mg/kg) administered to the animal is the difference between the loaded and unloaded dosing syringe weights. Each IP dosing syringe is weighed loaded and unloaded to at least 4 decimal places. […]
Following I.V. dose administration, whole brain is collected following cardiocentesis from 4 animals at each of the following time points post-dose: 0.083 hr, 0.5 hr, 2 hr, 6 hr, 12 hr, and 24 hr. […] Whole brain is rinsed in 1×PBS, the tissue weight recorded and snap frozen in pre-labeled tubes using liquid nitrogen. In addition, whole brain from 5 naïve mice is harvested at 24 hr, rinsed in 1×PBS, the tissue weight recorded and snap frozen in pre-labeled tubes using liquid nitrogen.
Samples are analyzed by LC/MS/MS using an Agilent 6410 mass spectrometer coupled with an Agilent 1200 HPLC and a CTC PAL chilled autosampler, all controlled by MassHunter software (Agilent). […]

Sequence of 5-HT2b-receptor (P41595 whole entry): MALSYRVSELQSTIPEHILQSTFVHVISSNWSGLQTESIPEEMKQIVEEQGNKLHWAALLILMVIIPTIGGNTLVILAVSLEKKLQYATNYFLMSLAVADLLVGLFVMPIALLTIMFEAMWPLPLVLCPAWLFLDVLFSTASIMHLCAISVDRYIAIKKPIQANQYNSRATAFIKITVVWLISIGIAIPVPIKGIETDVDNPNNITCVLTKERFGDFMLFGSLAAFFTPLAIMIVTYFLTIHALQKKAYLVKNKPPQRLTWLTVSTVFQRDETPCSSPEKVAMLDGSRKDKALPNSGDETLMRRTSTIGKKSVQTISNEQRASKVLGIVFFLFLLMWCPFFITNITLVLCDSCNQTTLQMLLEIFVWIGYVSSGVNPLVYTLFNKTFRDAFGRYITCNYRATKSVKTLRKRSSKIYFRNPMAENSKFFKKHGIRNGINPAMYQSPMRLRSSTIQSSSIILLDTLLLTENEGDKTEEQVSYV

Regarding `C[C@@H](N)C1CCN(S(=O)(=O)c2cccc3c(=O)[nH]ccc23)CC1` [1-hydroxy-BA-1049 (R)], in data set [1], the “concentration fully abolishing MLC2 diphosphorylation” value is at least 10 µM. Further, the “effect on MLC2 diphosphorylation (pMLC2 T18/S19)” value in data set [1] (no data shown) is given as “reduce MLC2 diphosphorylation”. In addition, the “inhibitory activity for ROCK2 relative to parent BA-1049 (R)” value at ROCK2 is “½ log more potent as an inhibitor of ROCK2 activity than the parent”.
As for `C[C@@H](N)C1CCN(S(=O)(=O)c2cccc3cnccc23)CC1` [BA-1049 (R)], at 5-HT2b-receptor, the “interaction with the 5-HT2b-receptor” value is recorded as “potential antagonistic interaction”. Also, the “penetration into the brain” value in data set [2] was “able to penetrate the brain by the three routes of administration”.

(Values after patent US11198680B2 (BioAxone BioSciences, Inc., priority 2016, dated 2021).)
